Source: patent US8741886B2, “Baclofen and acamprosate based therapy of neurological disorders” (Pharnext, priority 2011, dated 2014)

Test system: rat cortical neurons
Experiment: Toxicity of Aβ1-42 in neurite growth model: total length of neurite network
Assay type: cell-based
Conditions: Aβ1-42 2.5 μM; single drugs at the concentrations used in the combination
Protocol: Rat cortical neurons were cultured as described by Singer et al. (35). Briefly pregnant female rats of 15 days gestation were killed by cervical dislocation (Rats Wistar) and the foetuses were removed from the uterus. The cortex was removed and placed in ice-cold medium of Leibovitz (L15) containing 2% of Penicillin 10.000 U/ml and Streptomycin 10 mg/ml and 1% of bovine serum albumin (BSA). Cortices were dissociated by trypsin for 20 min at 37° C. (0.05%). The reaction was stopped by the addition of Dulbecco's modified Eagle's medium (DMEM) containing DNasel grade II and 10% of foetal calf serum (FCS). Cells were then mechanically dissociated by 3 serial passages through a 10 ml pipette and centrifuged at 515×g for 10 min at +4° C. […] Viable cells were counted in a Neubauer cytometer using the trypan blue exclusion test. […]
After 24 hours of intoxication, the supernatant is taken off and the cortical neurons are fixed by a cold solution of ethanol (95%) and acetic acid (5%) for 5 min. […] Then, cells are incubated with monoclonal antibody anti microtubule-associated-protein 2 (MAP-2; Sigma) or with anti synaptophysin (SYN, S5798, Sigma) together with anti PSD95 (P246, Sigma) antibodies in order to quantify synapses. […]

Structure (SMILES) | effect on Aβ1-42 intoxication, total length of neurites network (in words)
CC(=O)NCCCS(=O)(=O)O [Acamprosate] | no significant effect
NCC(CC(=O)O)c1ccc(Cl)cc1 (centres unmarked) [Baclofen] | no significant effect
